Data reported in PubChem BioAssay AID192 (DTP/NCI, 2004).
Values joined by “and” are separate entries in the source; they are usually repeats but may differ in a detail not shown here. Equal values may be shown once. Inconclusive results and toxic doses are left out.

System: BDF1 mice, B16 melanoma ip, median survival T/C
Assay: NCI In Vivo Anticancer Drug Screen. Data for tumor model B16 Melanoma (intraperitoneal) in B6D2F1 (BDF1) mice
Settings: endpoint: median survival time, higher = longer survival
Method in brief: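 In this screen, activity was judged from survival or tumor size in treated versus vehicle-treated tumor-bearing mice, reported as T/C.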

[1] = dose: 100.0 mg/kg/injection, schedule: Q04DX003 (ip), vehicle: Klucel (hydroxypropylcellulose) (HPC)
[2] = dose: 200.0 mg/kg/injection, schedule: Q04DX003 (ip), vehicle: Klucel (hydroxypropylcellulose) (HPC)
[3] = dose: 400.0 mg/kg/injection, schedule: Q04DX003 (ip), vehicle: Klucel (hydroxypropylcellulose) (HPC)
[4] = dose: 12.5 mg/kg/injection, schedule: Q01DX009 (ip), vehicle: saline
[5] = dose: 25.0 mg/kg/injection, schedule: Q01DX009 (ip), vehicle: saline
[6] = dose: 50.0 mg/kg/injection, schedule: Q01DX009 (ip), vehicle: saline
[7] = dose: 100.0 mg/kg/injection, schedule: Q01DX009 (ip), vehicle: saline with Tween-80
[8] = dose: 200.0 mg/kg/injection, schedule: Q01DX009 (ip), vehicle: saline with Tween-80
[9] = dose: 400.0 mg/kg/injection, schedule: Q01DX009 (ip), vehicle: saline with Tween-80

CSCS(=O)C[C@H](CO)NC(=O)/C=C/c1c(C)[nH]c(=O)[nH]c1=O (stereo partly drawn)
T/C (dose: 0.06 mg/kg/injection, schedule: Q01DX009 (ip), vehicle: Klucel (hydroxypropylcellulose) (HPC)): 95 % of control | T/C (dose: 0.08 mg/kg/injection, schedule: Q01DX009 (ip), vehicle: water): 99 % of control | T/C (dose: 0.15 mg/kg/injection, schedule: Q01DX009 (ip), vehicle: water): 105 % of control | T/C (dose: 0.3 mg/kg/injection, schedule: Q01DX009 (ip), vehicle: water): 108 % of control | T/C (dose: 0.6 mg/kg/injection, schedule: Q01DX009 (ip), vehicle: water): 91 % of control | T/C (dose: 0.98 mg/kg/injection, schedule: Q04DX003 (ip), vehicle: saline): 94 % of control | T/C (dose: 1.4 mg/kg/injection, schedule: Q04DX003 (ip), vehicle: saline): 113 % of control | T/C (dose: 2.0 mg/kg/injection, schedule: Q04DX003 (ip), vehicle: saline): 101 % of control

CC(=O)N/C(=C/c1ccccc1)C(=O)O
T/C (dose: 100.0 mg/kg/injection, schedule: Q01DX009 (ip), vehicle: Klucel (hydroxypropylcellulose) (HPC)): 94 % of control | T/C [1]: 93 % of control | T/C (dose: 200.0 mg/kg/injection, schedule: Q01DX009 (ip), vehicle: Klucel (hydroxypropylcellulose) (HPC)): 108 % of control | T/C [2]: 86 % of control | T/C (dose: 400.0 mg/kg/injection, schedule: Q01DX009 (ip), vehicle: Klucel (hydroxypropylcellulose) (HPC)): 97 % of control | T/C [3]: 90 % of control

COc1ccc2c(NCCCCCCCCNc3c4ccccc4nc4cc(OC)ccc34)c3ccccc3nc2c1
T/C (dose: 3.75 mg/kg/injection, schedule: Q01DX009 (ip), vehicle: distilled water + alcohol): 95 % of control

Br/C=C/C[N+]12CN3CN(CN(C3)C1)C2
T/C [4]: 117 % of control | T/C [5]: 103 % of control | T/C [6]: 110 % of control

Cc1nccc(=O)[nH]1
T/C (dose: 100.0 mg/kg/injection, schedule: Q01DX009 (ip), vehicle: saline): 90 % of control | T/C (dose: 100.0 mg/kg/injection, schedule: Q04DX003 (ip), vehicle: saline): 117 % of control | T/C (dose: 200.0 mg/kg/injection, schedule: Q01DX009 (ip), vehicle: saline): 107 % of control | T/C (dose: 200.0 mg/kg/injection, schedule: Q04DX003 (ip), vehicle: saline): 100 % of control

NC(Cc1ccc(O)cc1)C(=O)O (stereo not drawn)
T/C [7]: 110 % of control | T/C (dose: 100.0 mg/kg/injection, schedule: Q04DX003 (ip), vehicle: saline with Tween-80): 107 % of control | T/C [8]: 87 % of control | T/C (dose: 200.0 mg/kg/injection, schedule: Q04DX003 (ip), vehicle: saline with Tween-80): 104 % of control | T/C [9]: 90 % of control | T/C (dose: 400.0 mg/kg/injection, schedule: Q04DX003 (ip), vehicle: saline with Tween-80): 104 % of control

N=[N+]=CC(=O)CCC(NC(=O)C(CCC(=O)C=[N+]=N)NC(=O)CCC(N)C(=O)O)C(=O)O (stereo not drawn)
T/C (dose: 0.01 mg/kg/injection, schedule: Q01DX009 (ip), vehicle: other): 96 % of control and 100 % of control and 106 % of control | T/C (dose: 0.05 mg/kg/injection, schedule: Q01DX009 (ip), vehicle: saline): 100 % of control | T/C (dose: 0.1 mg/kg/injection, schedule: Q01DX009 (ip), vehicle: saline): 117 % of control | T/C (dose: 0.1 mg/kg/injection, schedule: Q01DX009 (ip), vehicle: suspension in saline): 90 % of control | T/C (dose: 0.2 mg/kg/injection, schedule: Q01DX009 (ip), vehicle: Klucel (hydroxypropylcellulose) (HPC)): 90 % of control | T/C (dose: 0.2 mg/kg/injection, schedule: Q01DX009 (ip), vehicle: suspension in saline): 103 % of control | T/C (dose: 0.4 mg/kg/injection, schedule: Q01DX009 (ip), vehicle: Klucel (hydroxypropylcellulose) (HPC)): 92 % of control | T/C (dose: 0.4 mg/kg/injection, schedule: Q01DX009 (ip), vehicle: suspension in saline): 101 % of control | T/C (dose: 0.5 mg/kg/injection, schedule: Q01DX009 (ip), vehicle: other): 87 % of control | T/C (dose: 0.8 mg/kg/injection, schedule: Q01DX009 (ip), vehicle: Klucel (hydroxypropylcellulose) (HPC)): 100 % of control | T/C (dose: 0.8 mg/kg/injection, schedule: Q01DX009 (ip), vehicle: suspension in saline): 100 % of control | T/C (dose: 1.6 mg/kg/injection, schedule: Q01DX009 (ip), vehicle: Klucel (hydroxypropylcellulose) (HPC)): 100 % of control | T/C (dose: 1.6 mg/kg/injection, schedule: Q01DX009 (ip), vehicle: suspension in saline): 105 % of control | T/C (dose: 2.5 mg/kg/injection, schedule: Q04DX003 (ip), vehicle: water): 105 % of control | T/C (dose: 5.0 mg/kg/injection, schedule: Q04DX003 (ip), vehicle: water): 105 % of control | T/C (dose: 10.0 mg/kg/injection, schedule: Q04DX003 (ip), vehicle: other): 122 % of control | T/C (dose: 10.0 mg/kg/injection, schedule: Q04DX003 (ip), vehicle: water): 107 % of control | T/C (dose: 5.0 micrograms/kg/injection, schedule: Q01DX009 (ip), vehicle: water): 123 % of control | T/C (dose: 10.0 micrograms/kg/injection, schedule: Q01DX009 (ip), vehicle: water): 94 % of control | T/C (dose: 50.0 micrograms/kg/injection, schedule: Q01DX009 (ip), vehicle: water): 115 % of control | T/C (dose: 100.0 micrograms/kg/injection, schedule: Q01DX009 (ip), vehicle: water): 89 % of control

CN(C)NCCC#N
T/C (dose: 33.0 mg/kg/injection, schedule: Q01DX009 (ip), vehicle: saline): 101 % of control | T/C [6]: 104 % of control | T/C (dose: 75.0 mg/kg/injection, schedule: Q01DX009 (ip), vehicle: saline): 104 % of control and 206 % of control | T/C (dose: 113.0 mg/kg/injection, schedule: Q01DX009 (ip), vehicle: saline): 100 % of control

CC1OC(OCC2OC(Oc3c(-c4ccc(O)c(OS(=O)(=O)O)c4)oc4cc(O)cc(O)c4c3=O)C(O)C(O)C2O)C(O)C(O)C1O (stereo not drawn)
T/C (dose: 4.0 mg/kg/injection, schedule: Q01DX009 (ip), vehicle: saline): 101 % of control | T/C (dose: 8.0 mg/kg/injection, schedule: Q01DX009 (ip), vehicle: saline): 105 % of control | T/C (dose: 16.0 mg/kg/injection, schedule: Q01DX009 (ip), vehicle: saline): 101 % of control | T/C (dose: 32.0 mg/kg/injection, schedule: Q01DX009 (ip), vehicle: saline): 100 % of control | T/C (dose: 64.0 mg/kg/injection, schedule: Q01DX009 (ip), vehicle: saline): 103 % of control

CC(C)(C)OC(=O)C(CC(=O)O)NC(=O)OCc1ccccc1 (stereo not drawn) (tested in a mixture with another compound)
T/C (dose: 15.0 mg/kg/injection, schedule: Q01DX009 (ip), vehicle: saline): 107 % of control | T/C (dose: 30.0 mg/kg/injection, schedule: Q01DX009 (ip), vehicle: saline): 102 % of control | T/C (dose: 60.0 mg/kg/injection, schedule: Q01DX009 (ip), vehicle: saline): 108 % of control

COc1ccc2c(c1)CN(S(=O)(=O)c1ccc(C)cc1)CCC2O (stereo not drawn)
T/C [1]: 96 % of control | T/C [2]: 93 % of control | T/C [3]: 95 % of control

CCC[N+](CCC)=c1ccc2nc3c(C)cc(N(CC)CC)cc3sc-2c1
T/C (dose: 0.15 mg/kg/injection, schedule: Q01DX009 (ip), vehicle: saline): 102 % of control | T/C (dose: 0.3 mg/kg/injection, schedule: Q01DX009 (ip), vehicle: saline): 102 % of control | T/C (dose: 0.6 mg/kg/injection, schedule: Q01DX009 (ip), vehicle: saline with Tween-80): 92 % of control | T/C (dose: 0.6 mg/kg/injection, schedule: Q01DX009 (ip), vehicle: saline): 102 % of control | T/C (dose: 1.2 mg/kg/injection, schedule: Q01DX009 (ip), vehicle: saline): 105 % of control

Cc1cc(=O)[nH]c(N/N=C/c2ccc(N(C)C)cc2)n1
T/C [7]: 100 % of control | T/C [8]: 95 % of control | T/C [9]: 97 % of control

O=P1(NCCCl)OCCCN1CCCl (stereo not drawn)
T/C [4]: 109 % of control | T/C [5]: 103 % of control and 111 % of control and 119 % of control | T/C (dose: 25.0 mg/kg/injection, schedule: Q01DX009 (ip), vehicle: water): 104 % of control and 121 % of control | T/C (dose: 25.0 mg/kg/injection, schedule: Q02DX009 (ip), vehicle: saline): 100 % of control and 107 % of control | T/C (dose: 25.0 mg/kg/injection, schedule: Q02DX009 (ip), vehicle: water): 114 % of control | T/C [6]: 90 % of control and 111 % of control and 116 % of control | T/C (dose: 50.0 mg/kg/injection, schedule: Q02DX009 (ip), vehicle: water): 124 % of control | T/C (dose: 100.0 mg/kg/injection, schedule: Q01DX009 (ip), vehicle: water): 169 % of control | T/C (dose: 200.0 mg/kg/injection, schedule: Q02DX009 (ip), vehicle: water): 122 % of control

O=c1[nH]cc(F)c(=O)n1-c1ccco1
T/C (dose: 12.5 mg/kg/injection, schedule: Q01DX011 (ip), vehicle: saline with Tween-80): 122 % of control | T/C (dose: 25.0 mg/kg/injection, schedule: Q01DX011 (ip), vehicle: saline with Tween-80): 115 % of control
